Target: recombinant DYRK1A kinase (Homo sapiens (Human), UniProt Q13627)
Test: DYRK1A kinase assay (Ser/Thr 18 peptide Z-lyte FRET assay)
Type: biochemical
Conditions: DYRK1A kinase activity; 15 μM ATP, 1 h room temperature; method text calls the value IC50
Procedure: Representative compounds were screened using the assay procedure for DYRK1A kinase activity as described below.
Each compound was dissolved in DMSO as a 10 mM stock and used to prepare compound source plates. Serial dilution (1:3, 11-point dose-response curves from 10 μM to 0.00016 μM) and compound transfer was performed using the ECHO 550 (Labcyte, Sunnyvale, CA) into 1536-well black-walled round bottom plates (Corning).
The DYRK1A kinase assay was run using the Ser/Thr 18 peptide Z-lyte assay kit according to manufacturer's instructions (Life Technologies—a Division of Thermo-Fisher). This is a non-radioactive assay using fluorescence resonance energy transfer (FRET) between coumarin and fluorescein to detect kinase activity which is represented as a ratio of coumarin emission/fluorescein emission.
Briefly, recombinant DYRK1A kinase, ATP and Ser/Thr peptide 18 were prepared in 1× Kinase buffer to final concentrations of 0.25 μg/mL, 15 μM, and 4 μM respectively. The mixture was allowed to incubate with the representative compounds for one hour at room temperature. All reactions were performed in duplicate. Unphosphorylated (“0% Control”) and phosphorylated (“100% control”) forms of Ser/Thr 18 served as control reactions. Additionally, an 11-point dose-response curve of Staurosporine (1 uM top) was run to serve as a positive compound control.
After incubation, Development Reagent A was diluted in Development Buffer then added to the reaction and allowed to further incubate for one hour at room temperature. The plate was read at Ex 400 Em […] to detect the coumarin signal and Ex 400 Em 520 to measure the signal (EnVision Multilabel Plate Reader, PerkinElmer).
The Emission ratio (Em) was calculated as a ratio of the coumarin (C) emission signal (at 445 nm)/Fluorescein (F) emission signal (at 520 nm). The percent phosphorylation was then calculated using the following formula: [1−((Em ratio×F100%)−C100%)/((C0%−C100%)+(Em ratio×(F100%−F0%)))]. Dose-response curves were generated, and inhibitory concentration (IC50) values were calculated using non-linear regression curve fit in the Dotmatics' Studies Software (Bishops Stortford, UK).

| Structure (SMILES) | EC50 [nM] |
| --- | --- |
| OCc1cnc2c(F)cc(-c3c[nH]c4nc(C5CC5)ncc34)cn12 [Compound 363, (6-(2-Cyclopropyl-7H-pyrrolo[2,3-d]pyrimidin-5-yl)-8-fluoroimidazo[1,2-a]pyridin-3-yl)methanol] | 41.6 |
| CN1CCC(c2cnc3c(F)cc(-c4c[nH]c5nc(C6CC6)ncc45)cn23)CC1 [Compound 403, 2-Cyclopropyl-5-(8-fluoro-3-(1-methylpiperidin-4-yl)imidazo[1,2-a]pyridin-6-yl)-7H-pyrrolo[2,3-d]pyrimidine] | 174 |
| C[C@H](Nc1ncc2c(-c3cnc4nccn4c3)c[nH]c2n1)C(F)(F)F [Compound 464, (S)-5-(Imidazo[1,2-a]pyrimidin-6-yl)-N-(1,1,1-trifluoropropan-2-yl)-7H-pyrrolo[2,3-d]pyrimidin-2-amine] | 9.5 |
| CC(C)(C)Cc1ncc2c(-c3cnc4nccn4c3)c[nH]c2n1 [Compound 490, 5-(Imidazo[1,2-a]pyrimidin-6-yl)-2-neopentyl-7H-pyrrolo[2,3-d]pyrimidine] | 153 |
| Cn1cc2cc(-c3c[nH]c4nc(NCC(C)(C)F)ncc34)ccc2n1 [Compound 492, N-(2-Fluoro-2-methylpropyl)-5-(2-methyl-2H-indazol-5-yl)-7H-pyrrolo[2,3-d]pyrimidin-2-amine] | 123 |
| Cc1nc2c(F)cc(-c3c[nH]c4nc(NCC5CN(C)C5)ncc34)cc2n1C [Compound 493, 5-(4-Fluoro-1,2-dimethyl-1H-benzo[d]imidazol-6-yl)-N-((1-methylazetidin-3-yl)methyl)-7H-pyrrolo[2,3-d]pyrimidin-2-amine] | 4700 |
| Cc1nc2c(F)cc(-c3c[nH]c4nc(N5CCC5)ncc34)cc2n1C(C)C [Compound 494, 2-(Azetidin-1-yl)-5-(4-fluoro-1-isopropyl-2-methyl-1H-benzo[d]imidazol-6-yl)-7H-pyrrolo[2,3-d]pyrimidine] | 227 |
| Cc1nc2c(F)cc(-c3c[nH]c4nc(NCC(C)C)ncc34)cc2n1C(C)C [Compound 506, 5-(4-Fluoro-1-isopropyl-2-methyl-1H-benzo[d]imidazol-6-yl)-N-isobutyl-7H-pyrrolo[2,3-d]pyrimidin-2-amine] | 1.7 |
| Cc1nc2c(F)cc(-c3c[nH]c4nc(NCC5(F)CCCCC5)ncc34)cc2n1C(C)C [Compound 526, 5-(4-Fluoro-1-isopropyl-2-methyl-1H-benzo[d]imidazol-6-yl)-N-((1-fluorocyclohexyl)methyl)-7H-pyrrolo[2,3-d]pyrimidin-2-amine] | 8.5 |
| Cc1nc2c(F)cc(-c3c[nH]c4nc(NCC5CCN(C)CC5)ncc34)cc2n1C(C)C [Compound 529, 5-(4-Fluoro-1-isopropyl-2-methyl-1H-benzo[d]imidazol-6-yl)-N-((1-methylpiperidin-4-yl)methyl)-7H-pyrrolo[2,3-d]pyrimidin-2-a] | 9.3 |
| Cc1nc2cc(F)c(-c3c[nH]c4nc(C5CC5)ncc34)cc2n1C(C)C [Compound 539, 2-Cyclopropyl-5-(5-fluoro-1-isopropyl-2-methyl-1H-benzo[d]imidazol-6-yl)-7H-pyrrolo[2,3-d]pyrimidine] | 40.8 |
| Cc1nc2ccc(-c3c[nH]c4nc(C5CC5)ncc34)c(F)c2n1C(C)C [Compound 540, 2-Cyclopropyl-5-(7-fluoro-1-isopropyl-2-methyl-1H-benzo[d]imidazol-6-yl)-7H-pyrrolo[2,3-d]pyrimidine] | 25.5 |
| Cc1nc2ncc(-c3c[nH]c4nc(CC(C)C)ncc34)cc2n1C(C)C [Compound 585, 6-(2-Isobutyl-7H-pyrrolo[2,3-d]pyrimidin-5-yl)-1-isopropyl-2-methyl-1H-imidazo[4,5-b]pyridine] | 17.9 |
| Cc1nc2ncc(-c3c[nH]c4nc(NCC(C)C)ncc34)cc2n1C(C)C [Compound 594, N-Isobutyl-5-(1-isopropyl-2-methyl-1H-imidazo[4,5-b]pyridin-6-yl)-7H-pyrrolo[2,3-d]pyrimidin-2-amine] | 5.6 |
| Cc1nc2cnc(-c3c[nH]c4ncncc34)cc2n1C(C)C [Compound 627, 1-Isopropyl-2-methyl-6-(7H-pyrrolo[2,3-d]pyrimidin-5-yl)-1H-imidazo[4,5-c]pyridine] | 71.3 |
| Cc1nc2cnc(-c3c[nH]c4nc(C5CCC5)ncc34)cc2n1C(C)C [Compound 628, 6-(2-Cyclobutyl-7H-pyrrolo[2,3-d]pyrimidin-5-yl)-1-isopropyl-2-methyl-1H-imidazo[4,5-c]pyridine] | 789 |
| Cc1nc2ccc(-c3c[nH]c4nc(NCC(C)(C)F)ncc34)nc2n1CC(F)F [Compound 643, 5-(3-(2,2-Difluoroethyl)-2-methyl-3H-imidazo[4,5-b]pyridin-5-yl)-N-(2-fluoro-2-methylpropyl)-7H-pyrrolo[2,3-d]pyrimidin-2-amine] | 42.8 |
| Cc1nc2ccc(-c3c[nH]c4nc(C5CC5)ncc34)nc2n1C(C)C [Compound 676, 5-(2-Cyclopropyl-7H-pyrrolo[2,3-d]pyrimidin-5-yl)-3-isopropyl-2-methyl-3H-imidazo[4,5-b]pyridine] | 1.5 |
| CC(C)(C)Nc1ncc2c(-c3ccc4ncnn4c3)c[nH]c2n1 [Compound 718, 5-([1,2,4]Triazolo[1,5-a]pyridin-6-yl)-N-(tert-butyl)-7H-pyrrolo[2,3-d]pyrimidin-2-amine] | 415 |
| c1nc2ccc(-c3c[nH]c4nc(C5CC5)ncc34)cn2n1 [Compound 720, 6-(2-Cyclopropyl-7H-pyrrolo[2,3-d]pyrimidin-5-yl)-[1,2,4]triazolo[1,5-a]pyridine] | 200 |
| c1nc2ccc(-c3c[nH]c4nc(C5CCC5)ncc34)cn2n1 [Compound 721, 6-(2-Cyclobutyl-7H-pyrrolo[2,3-d]pyrimidin-5-yl)-[1,2,4]triazolo[1,5-a]pyridine] | 852 |
| CC(C)(C)CNc1ncc2c(-c3ccc4ncnn4c3)c[nH]c2n1 [Compound 728, 5-([1,2,4]Triazolo[1,5-a]pyridin-6-yl)-N-neopentyl-7H-pyrrolo[2,3-d]pyrimidin-2-amine] | 48.1 |
| FC(F)(F)CNc1ncc2c(-c3ccc4ncnn4c3)c[nH]c2n1 [Compound 733, 5-([1,2,4]Triazolo[1,5-a]pyridin-6-yl)-N-(2,2,2-trifluoroethyl)-7H-pyrrolo [2,3-d]pyrimidin-2-amine] | 23 |
| C[C@H](Nc1ncc2c(-c3ccc4ncnn4c3)c[nH]c2n1)C(F)(F)F [Compound 735, (S)-5-([1,2,4]Triazolo[1,5-a]pyridin-6-yl)-N-(1,1,1-trifluoropropan-2-yl)-7H-pyrrolo[2,3-d]pyrimidin-2-amine] | 78.7 |
| FC(F)(F)CCNc1ncc2c(-c3ccc4ncnn4c3)c[nH]c2n1 [Compound 736, 5-([1,2,4]Triazolo[1,5-a]pyridin-6-yl)-N-(3,3,3-trifluoropropyl)-7H-pyrrolo [2,3-d]pyrimidin-2-amine] | 45.8 |
| FC(F)(CNc1ncc2c(-c3ccc4ncnn4c3)c[nH]c2n1)C1CC1 [Compound 743, 5-([1,2,4]Triazolo[1,5-a]pyridin-6-yl)-N-(2-cyclopropyl-2,2-difluoroethyl)-7H-pyrrolo[2,3-d]pyrimidin-2-amine] | 1.9 |
| CN1CCN(c2cc(Nc3ncc4c(-c5ccc6ncnn6c5)c[nH]c4n3)ccn2)CC1 [Compound 755, 5-([1,2,4]Triazolo[1,5-a]pyridin-6-yl)-N-(2-(4-methylpiperazin-1-yl)pyridin-4-yl)-7H-pyrrolo[2,3-d]pyrimidin-2-amine] | 4.5 |

From patent US20250129104A1, “7H-PYRROLO[2,3-D]PYRIMIDINES AND PREPARATION AND USES THEREOF” (BioSplice Therapeutics, Inc., priority 2021, published 2025)
